According to ChEMBL document CHEMBL5724914, “Linking interpersonal differences in gut microbiota composition and drug biotransformation activity” (2024):

Assays:
[1] = (§1) The drug is tested on Z-019 corresponding to rat gut metagenome with ENA study accession number: PRJEB37062 and ENA sample accession number: ERS12561818 for biotransformation under anaerobic condition. The drug concentrations were measured over 9 timepoints collected between 0 and 24 hours of incubation by liquid-chromatography-coupled mass spectrometry (LC–MS); details: 2 µM
[2] = as §1, with “on Z-018” for “on Z-019”, “to pig” for “to rat”, “number: ERS12561817” for “number: ERS12561818”; details: 2 µM
[3] = as §1, with “on Z-016” for “on Z-019”, “to mouse” for “to rat”, “number: ERS12561815” for “number: ERS12561818”; details: 2 µM
[4] = as §1, with “Z-014” for “Z-019”, “ERS12561814” for “ERS12561818”; details: 2 µM
[5] = as §1, with “on Z-011” for “on Z-019”, “to mouse” for “to rat”, “number: ERS12561811” for “number: ERS12561818”; details: 2 µM
[6] = as §1, with “on Z-002” for “on Z-019”, “to rabbit” for “to rat”, “number: ERS12561802” for “number: ERS12561818”; details: 2 µM
[7] = as §1, with “on WLS-310” for “on Z-019”, “to human” for “to rat”, “number: ERS12561785” for “number: ERS12561818”; details: 2 µM
[8] = as §1, with “on WLS-220” for “on Z-019”, “to human” for “to rat”, “number: ERS12561769” for “number: ERS12561818”; details: 2 µM
[9] = as §1, with “on WLS-170” for “on Z-019”, “to human” for “to rat”, “number: ERS12561762” for “number: ERS12561818”; details: 2 µM
[10] = as §1, with “on WLS-082” for “on Z-019”, “to human” for “to rat”, “number: ERS12561751” for “number: ERS12561818”; details: 2 µM
[11] = as §1, with “on WLS-039” for “on Z-019”, “to human” for “to rat”, “number: ERS12561746” for “number: ERS12561818”; details: 2 µM
[12] = human gut metagenome, 24 h, 2 µM
[13] = human gut metagenome, 24 h, 2 µM; remark: listed apart in the source
[14] = human gut metagenome, 24 h, 2 µM; remark: listed apart in the source
[15] = human gut metagenome, 24 h, 2 µM; remark: listed apart in the source
[16] = human gut metagenome, 24 h, 2 µM; remark: listed apart in the source
[17] = human gut metagenome, 24 h, 2 µM; remark: listed apart in the source
[18] = human gut metagenome, 24 h, 2 µM; remark: listed apart in the source
[19] = human gut metagenome, 24 h, 2 µM; remark: listed apart in the source
[20] = human gut metagenome, 24 h, 2 µM; remark: listed apart in the source
Also: call rule not given here.

Structure (SMILES)	Bacterial Biotransformation [1]	Bacterial Biotransformation [2]	Bacterial Biotransformation [3]	Bacterial Biotransformation [4]	Bacterial Biotransformation [5]	Bacterial Biotransformation [6]	Bacterial Biotransformation [7]	Bacterial Biotransformation [8]	Bacterial Biotransformation [9]	Bacterial Biotransformation [10]	Bacterial Biotransformation [11]	Bacterial Biotransformation [12]	Bacterial Biotransformation [13]	Bacterial Biotransformation [14]	Bacterial Biotransformation [15]	Bacterial Biotransformation [16]	Bacterial Biotransformation [17]	Bacterial Biotransformation [18]	Bacterial Biotransformation [19]	Bacterial Biotransformation [20]
CC(C)(C(=O)O)c1ccc(C(O)CCCN2CCC(C(O)(c3ccccc3)c3ccccc3)CC2)cc1 (stereo not given) [FEXOFENADINE]	Compound NOT metabolized	Compound NOT metabolized	Compound NOT metabolized	Compound NOT metabolized	Compound NOT metabolized	Compound metabolized	Compound NOT metabolized	Compound NOT metabolized	Compound NOT metabolized	Compound NOT metabolized	Compound NOT metabolized	Compound NOT metabolized	Compound NOT metabolized	Compound NOT metabolized	Compound NOT metabolized	Compound NOT metabolized	Compound NOT metabolized	Compound NOT metabolized	Compound NOT metabolized	Compound NOT metabolized
COc1ccc2c3c1O[C@H]1C[C@@H](O)C=C[C@@]31CCN(C)C2 [GALANTAMINE]	Compound NOT metabolized	Compound NOT metabolized	Compound NOT metabolized	Compound NOT metabolized	Compound NOT metabolized	Compound metabolized	Compound metabolized	Compound metabolized	Compound metabolized	Compound NOT metabolized	Compound NOT metabolized	Compound metabolized	Compound NOT metabolized	Compound NOT metabolized	Compound metabolized	Compound NOT metabolized	Compound NOT metabolized	Compound NOT metabolized	Compound NOT metabolized	Compound NOT metabolized
Cc1ccc(S(=O)(=O)NC(=O)NN2CC3CCCC3C2)cc1 (stereo not given) [GLICLAZIDE]	Compound NOT metabolized	Compound metabolized	Compound metabolized	Compound NOT metabolized	Compound metabolized	Compound metabolized	Compound metabolized	Compound metabolized	Compound metabolized	Compound metabolized	Compound metabolized	Compound metabolized	Compound metabolized	Compound metabolized	Compound metabolized	Compound metabolized	Compound metabolized	Compound metabolized	Compound NOT metabolized	Compound NOT metabolized
COC1=CC(=O)C[C@@H](C)[C@]12Oc1c(Cl)c(OC)cc(OC)c1C2=O [GRISEOFULVIN]	Compound NOT metabolized	Compound metabolized	Compound metabolized	Compound metabolized	Compound metabolized	Compound metabolized	Compound metabolized	Compound metabolized	Compound metabolized	Compound metabolized	Compound metabolized	Compound metabolized	Compound metabolized	Compound NOT metabolized	Compound metabolized	Compound metabolized	Compound metabolized	Compound metabolized	Compound metabolized	Compound metabolized
CN(C)C(=O)C(CCN1CCC(O)(c2ccc(Cl)cc2)CC1)(c1ccccc1)c1ccccc1 [LOPERAMIDE]	Compound NOT metabolized	Compound metabolized	Compound metabolized	Compound metabolized	Compound NOT metabolized	Compound metabolized	Compound metabolized	Compound metabolized	Compound metabolized	Compound metabolized	Compound metabolized	Compound metabolized	Compound metabolized	Compound metabolized	Compound metabolized	Compound metabolized	Compound metabolized	Compound metabolized	Compound metabolized	Compound metabolized

The remaining lines, values ahead:

Bacterial Biotransformation [1]	Bacterial Biotransformation [2]	Bacterial Biotransformation [3]	Bacterial Biotransformation [4]	Bacterial Biotransformation [5]	Bacterial Biotransformation [6]	Bacterial Biotransformation [7]	Bacterial Biotransformation [8]	Bacterial Biotransformation [9]	Bacterial Biotransformation [10]	Bacterial Biotransformation [11]	Bacterial Biotransformation [12]	Bacterial Biotransformation [13]	Bacterial Biotransformation [14]	Bacterial Biotransformation [15]	Bacterial Biotransformation [16]	Bacterial Biotransformation [17]	Bacterial Biotransformation [18]	Bacterial Biotransformation [19]	Bacterial Biotransformation [20]	Structure (SMILES)
Compound NOT metabolized	Compound NOT metabolized	Compound NOT metabolized	Compound NOT metabolized	Compound NOT metabolized	Compound metabolized	Compound NOT metabolized	Compound NOT metabolized	Compound NOT metabolized	Compound NOT metabolized	Compound NOT metabolized	Compound NOT metabolized	Compound NOT metabolized	Compound metabolized	Compound NOT metabolized	Compound NOT metabolized	Compound NOT metabolized	Compound NOT metabolized	Compound NOT metabolized	Compound NOT metabolized	N#Cc1ccc(C(c2ccc(C#N)cc2)n2cncn2)cc1 [LETROZOLE]
Compound NOT metabolized	Compound NOT metabolized	Compound NOT metabolized	Compound NOT metabolized	Compound NOT metabolized	Compound metabolized	Compound metabolized	Compound NOT metabolized	Compound metabolized	Compound NOT metabolized	Compound NOT metabolized	Compound NOT metabolized	Compound NOT metabolized	Compound NOT metabolized	Compound metabolized	Compound NOT metabolized	Compound NOT metabolized	Compound metabolized	Compound NOT metabolized	Compound NOT metabolized	CC(Oc1c(Cl)cccc1Cl)C1=NCCN1 (stereo not given) [LOFEXIDINE]
Compound NOT metabolized	Compound NOT metabolized	Compound NOT metabolized	Compound NOT metabolized	Compound NOT metabolized	Compound NOT metabolized	Compound metabolized	Compound metabolized	Compound metabolized	Compound metabolized	Compound NOT metabolized	Compound metabolized	Compound metabolized	Compound metabolized	Compound metabolized	Compound metabolized	Compound metabolized	Compound metabolized	Compound metabolized	Compound NOT metabolized	CCCCc1nc(Cl)c(CO)n1Cc1ccc(-c2ccccc2-c2nn[nH]n2)cc1 [LOSARTAN]
